From the supplement of paper PMC10307832

Assays:
Experiment in all cases: relative viability (nuclei count vs DMSO), 5 days (fraction); higher = more cells survive
Tosedostat + Luminespib = compound: CC(C)C[C@@H](C(=O)N[C@H](C(=O)OC1CCCC1)c1ccccc1)[C@H](O)C(=O)NO [Tosedostat] + CCNC(=O)c1noc(-c2cc(C(C)C)c(O)cc2O)c1-c1ccc(CN2CCOCC2)cc1 [Luminespib] (partner 0.01 µM)
Outline: (§1)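 Dosing by pin tool came one day after lung cancer cell lines were seeded in 1536-well plates, using either one drug or a fixed anchor-drug dose plus five library-drug doses (not always all listed) in √10 steps. After 5 days, nuclei were counted on 4× images. Relative viability is treated-well nuclei count divided by vehicle-well nuclei count, and values are medians of duplicate plates.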

Tosedostat + Crizotinib = compound: CC(C)C[C@@H](C(=O)N[C@H](C(=O)OC1CCCC1)c1ccccc1)[C@H](O)C(=O)NO [Tosedostat] + C[C@@H](Oc1cc(-c2cnn(C3CCNCC3)c2)cnc1N)c1c(Cl)ccc(F)c1Cl [Crizotinib] (partner 1 µM)
Outline: as §1

Tosedostat + Pemetrexed = compound: CC(C)C[C@@H](C(=O)N[C@H](C(=O)OC1CCCC1)c1ccccc1)[C@H](O)C(=O)NO [Tosedostat] + Nc1nc2[nH]cc(CCc3ccc(C(=O)N[C@@H](CCC(=O)O)C(=O)O)cc3)c2c(=O)[nH]1 [Pemetrexed] (partner 0.2 µM)
Outline: as §1

[1] = compound: CC1=NN=C(O1)C2=NN=C(C=C2)N3CCC(CC3)OC4=C(C=CC(=C4)F)Cl + COc1cccc2cc(-c3nc([C@H]4CC[C@H](C(=O)O)CC4)n4ncnc(N)c34)[nH]c12 [OSI-027] (partner 0.5 µM)
Outline: as §1

Row | Cell Line | relative viability (Tosedostat + Luminespib; first compound 0.02 µM) | relative viability (Tosedostat + Luminespib; first compound 0.06325 µM) | relative viability (Tosedostat + Luminespib; first compound 0.2 µM) | relative viability (Tosedostat + Luminespib; first compound 0.6325 µM) | relative viability (Tosedostat + Luminespib; first compound 2 µM) | relative viability (Tosedostat + Crizotinib; first compound 0.02 µM) | relative viability (Tosedostat + Crizotinib; first compound 0.06325 µM) | relative viability (Tosedostat + Crizotinib; first compound 0.2 µM) | relative viability (Tosedostat + Crizotinib; first compound 0.6325 µM) | relative viability (Tosedostat + Crizotinib; first compound 2 µM) | relative viability (Tosedostat + Pemetrexed; first compound 0.02 µM) | relative viability (Tosedostat + Pemetrexed; first compound 0.06325 µM) | relative viability (Tosedostat + Pemetrexed; first compound 0.2 µM) | relative viability (Tosedostat + Pemetrexed; first compound 0.6325 µM) | relative viability (Tosedostat + Pemetrexed; first compound 2 µM) | relative viability ([1]; first compound 0.253 µM) | relative viability ([1]; first compound 0.8 µM) | relative viability ([1]; first compound 2.53 µM) | relative viability ([1]; first compound 8 µM)
1 | HCC-827 | 0.587 | 0.73 | 0.651 | 0.362 | 0.695 | 0.954 | 0.933 | 0.977 | 0.888 | 0.756 | 0.24 | 0.265 | 0.255 | 0.318 | 0.353 | 0.602 | 0.362 | 0.653 | 0.591
2 | HOP-62 | 1.01 | 0.894 | 0.925 | 0.919 | 0.817 | 1.01 | 0.994 | 0.677 | 0.81 | 0.69 | 0.34 | 0.328 | 0.38 | 0.431 | 0.472 | 0.762 | 0.579 | 0.771 | 0.555
3 | IA-LM |  |  |  |  |  | 0.937 | 0.879 | 0.776 | 0.692 | 0.602 |  |  |  |  |  |  |  |  | 
4 | LC-2-ad | 1.2 | 1.05 | 0.923 | 0.792 | 0.891 | 0.47 | 0.454 | 0.493 | 0.378 | 0.348 | 0.299 | 0.303 | 0.289 | 0.277 | 0.251 | 0.689 | 0.678 | 0.632 | 0.682
5 | LCLC-97TM1 | 0.775 | 0.81 | 0.688 | 0.644 | 0.652 | 0.338 |  |  | 0.288 | 0.221 | 0.176 | 0.175 | 0.192 | 0.203 | 0.254 | 0.523 | 0.391 | 0.472 | 0.508
6 | LCLC-103H | 1.04 | 0.932 | 1.04 | 0.998 | 0.9 | 1.09 | 1.03 | 1.06 | 1.13 | 1.02 | 0.507 | 0.522 | 0.533 | 0.494 | 0.57 | 0.372 | 0.426 | 0.426 | 0.385
7 | LK-2 | 0.175 | 0.21 | 0.167 | 0.221 | 0.214 | 0.218 | 0.225 | 0.232 | 0.249 | 0.215 | 0.244 | 0.249 | 0.348 | 0.274 | 0.374 | 0.265 | 0.23 | 0.311 | 0.234
8 | LOU-NH91 | 0.377 | 0.454 | 0.313 | 0.306 | 0.322 | 0.86 | 0.752 | 0.767 | 0.695 | 0.694 | 0.394 | 0.478 | 0.447 | 0.487 | 0.444 | 0.693 | 0.645 | 0.706 | 0.69
9 | LU99A | 0.316 | 0.245 | 0.337 | 0.277 | 0.232 | 0.546 | 0.636 | 0.648 | 0.484 | 0.478 | 0.172 | 0.165 | 0.195 | 0.212 | 0.191 | 0.274 | 0.298 | 0.307 | 0.287
10 | LXF-289 | 0.703 | 0.599 | 0.687 | 0.732 | 0.64 | 0.838 | 0.703 | 0.821 | 0.76 | 0.799 | 0.949 | 0.978 | 1.05 | 0.944 | 1.07 | 0.76 | 0.548 | 0.741 | 0.687
11 | NCI-H23 | 0.233 | 0.203 | 0.22 | 0.237 | 0.207 | 0.504 | 0.494 | 0.442 | 0.341 | 0.206 | 0.745 | 0.702 | 0.691 | 0.725 | 0.361 | 0.49 |  | 0.547 | 0.627
12 | NCI-H322M | 0.835 | 0.895 | 0.862 | 0.826 | 0.788 | 0.877 | 0.957 | 0.841 | 0.868 | 0.71 | 0.61 | 0.628 | 0.596 | 0.666 | 0.652 | 0.513 | 0.492 | 0.636 | 0.516
13 | NCI-H522 | 1.29 | 1.27 | 1.23 | 1.41 | 1.27 |  |  |  |  |  | 1.14 | 1.02 | 1.06 | 1.06 | 0.979 | 0.725 | 0.659 | 0.699 | 0.693
14 | NCI-H727 | 0.305 | 0.513 |  | 0.427 | 0.254 | 0.983 | 0.784 | 0.658 | 0.557 | 0.513 |  |  |  |  |  | 0.704 | 0.494 | 0.685 | 0.741
15 | NCI-H1299 |  |  |  |  |  | 1.05 | 0.919 | 0.933 | 0.926 | 0.873 |  |  |  |  |  |  |  |  | 
16 | NCI-H1395 | 0.635 | 0.774 | 0.664 | 0.663 | 0.559 |  |  |  |  |  | 1.04 | 1.04 | 0.848 | 0.927 | 0.725 | 0.641 | 0.588 | 0.639 | 0.595
17 | NCI-H1648 |  |  |  |  |  |  |  |  |  |  | 0.656 | 0.736 | 0.99 | 0.966 | 0.532 | 0.256 | 0.253 | 0.279 | 0.271
18 | NCI-H1703 |  |  |  |  |  | 1.15 | 0.643 | 0.548 | 0.38 | 0.597 |  |  |  |  |  |  |  |  | 
19 | NCI-H1793 | 0.166 | 0.233 | 0.322 | 0.245 | 0.249 |  |  |  |  |  | 0.659 | 0.832 | 0.838 | 0.849 | 0.598 | 0.253 | 0.2 | 0.296 | 0.276
20 | NCI-H2342 | 0.686 | 0.732 | 0.806 | 0.859 | 0.883 |  |  |  |  |  | 0.755 | 0.776 | 0.846 | 0.79 | 0.728 | 0.57 | 0.531 | 0.515 | 0.522
21 | SW 900 | 0.175 | 0.182 | 0.19 | 0.17 | 0.155 |  |  |  |  |  | 0.513 | 0.527 | 0.527 | 0.474 | 0.486 |  |  | 0.637 | 0.41
